# From ChEMBL document CHEMBL4184324, “Ligand Desolvation Steers On-Rate and Impacts Drug Residence Time of Heat Shock Protein 90 (Hsp90) Inhibitors” (J Med Chem, 2018)
# Target: Heat shock protein HSP90 (Homo sapiens, UniProt P07900+P08238)
# Test: Binding affinity to recombinant N-terminal Hsp90 (unknown origin) by SPR method
# Type: protein assay
row,Compound,Kd [µM]
1,COc1ccc(N(C)C(=O)c2cc3c(Cc4cccc(C)c4)n[nH]c3cc2O)cc1,0.024
2,Cc1cccc(Cc2n[nH]c3cc(O)c(C(=O)N(C)c4ccc(Cl)cc4)cc23)c1,0.1529
3,Cc1cccc(Cc2n[nH]c3cc(O)c(C(=O)N(C)c4cccc(F)c4)cc23)c1,0.0612
4,CCCc1n[nH]c2cc(O)c(C(=O)N(C)c3ccc(N4CCOCC4)cc3)cc12,0.0054
5,CCCCc1n[nH]c2cc(O)c(C(=O)N(C)c3ccc(N4CCOCC4)cc3)cc12,0.0066
6,Cc1cccc(Cc2n[nH]c3cc(O)c(C(=O)N(C)c4ccc5c(c4)OCCO5)cc23)c1,0.0386
7,Cc1cccc(Cc2n[nH]c3cc(O)c(C(=O)N(C)c4cccc(Cl)c4)cc23)c1,0.089
8,Cc1cccc(Cc2n[nH]c3cc(O)c(C(=O)N(C)c4ccc(Br)cc4)cc23)c1,0.1553
9,CC(=O)N1CCc2cc(N(C)C(=O)c3cc4c(Cc5cccc(C)c5)n[nH]c4cc3O)ccc21,0.0509
10,COc1cccc(Cc2n[nH]c3cc(O)c(C(=O)N(C)c4ccc(N5CCOCC5)cc4)cc23)c1,0.012
11,Cc1cccc(Cc2n[nH]c3cc(O)c(C(=O)N(C)c4ccc(CN5CCOCC5)cc4)cc23)c1,0.0334
12,CN(C(=O)c1cc2c(CC3CCCCC3)n[nH]c2cc1O)c1ccc(N2CCOCC2)cc1,0.042
13,CC(=O)N1CCc2ccc(N(C)C(=O)c3cc4c(Cc5cccc(C)c5)n[nH]c4cc3O)cc21,0.0518
14,Cc1cccc(Cc2n[nH]c3cc(O)c(C(=O)N(C)c4ccc(COCCN(C)C)cc4)cc23)c1,0.0115
15,Cc1ccccc1-n1c(-c2cc(C(=O)N(C)Cc3cccc(-c4cccnc4)c3)c(O)cc2O)n[nH]c1=O,0.0346
16,Cc1cccc(Cc2n[nH]c3cc(O)c(C(=O)N(C)c4cccc(C)c4)cc23)c1,0.07

# More lines, now with the values ahead:
row,Kd [µM],Compound
1,0.073,Cc1cccc(Cc2n[nH]c3cc(O)c(C(=O)N(C)c4ccc(F)cc4)cc23)c1
2,0.0078,CN(C(=O)c1cc2c(CC3CCCC3)n[nH]c2cc1O)c1ccc(N2CCOCC2)cc1
3,0.016,Cc1cccc(Cc2n[nH]c3cc(O)c(C(=O)N(C)c4ccc(CNS(C)(=O)=O)cc4)cc23)c1
4,0.043,COc1cccc(N(C)C(=O)c2cc3c(Cc4cccc(C)c4)n[nH]c3cc2O)c1
5,0.0254,CC(=O)c1ccc(N(C)C(=O)c2cc3c(Cc4cccc(C)c4)n[nH]c3cc2O)cc1
6,0.0325,Cc1cccc(Cc2n[nH]c3cc(O)c(C(=O)N(C)c4ccc(OCCCC#N)cc4)cc23)c1
7,0.0172,COc1ccc(N(C)C(=O)c2cc3c(Cc4cccc(C)c4)n[nH]c3cc2O)cc1Cl
8,0.042,CN(C(=O)c1cc2c(C(=O)N3CCCCC3)n[nH]c2cc1O)c1ccc(N2CCOCC2)cc1
